In brackets after ≈: the same amount, converted by molar mass. Structures can show the parent of a compound that is named as a salt. Where two headings read alike, the source gives them in different places.
Tests used:
[1] = test system: Klebsiella pneumoniae ATCC BAA-2472; assay: MIC of β-lactamase inhibitors in the presence of antibiotic (Test Example 1); type: cell-based
Protocol: (§1) • 1) The antibiotics cefepime and biapenem (purchased from MCE Inc.).
(§2) The biosafety cabinet was sterilized with ultraviolet light for 30 min. Glycerol tubes were taken out of a −80° C. freezer, and streaks were gently formed in the glycerol tubes using inoculating loops. Bacteria were inoculated onto MHIIA solid plates. The plates were incubated overnight in a 37° C. incubator.
(§3) 30 μL of compound stock solution was added to column 1 of a 96-well v-bottom plate, and DMSO was added to columns 2-10. Subsequently, 15 μL was transferred from column 1 to column 2 using a pipette and well mixed gently, and then 15 μL of solution was transferred from column 2 to column 3: the serial dilution process proceeded to column 10 (200×β-lactamase inhibitor working solutions were prepared). The two antibiotics were diluted with corresponding solvents to form 1.6 mg/mL solutions.
(§4) 1 μL of 200×B-lactamase inhibitor solution and 1 μL of 1.6 mg/mL antibiotic were added to a new 96-well round-bottom plate. The plate that had been incubated overnight was taken out of the incubator, and several monoclones were picked into normal saline using an inoculating loop. The bacterial solution was adjusted to a concentration of about 1.0×10^8CFU/mL and diluted 200-fold with medium, and 198 μL of the resulting bacterial solution was added to the test plate. The test plate was incubated in a 37° C.incubator for 18-24 h. The 96-well plate that had been incubated for 20 h was taken out of the incubator. The concentration that prevented visible bacterial growth was defined as the minimum inhibitory concentration.

[2] = test system: Klebsiella pneumoniae ATCC BAA-1705; assay: as above; type: cell-based
Protocol: as §1, §2, §3, §4

[3] = test system: Escherichia coli ARLG-2829 (Urine); assay: as above; type: cell-based; conditions: in the presence of Cefepime (8 ug/mL)
Protocol: as §1, §2, §3, §4

[4] = test system: cefepime-resistant Klebsiella pneumoniae expressing different types of β-lactamases; assay: microbe, parasite or virus in culture; type: cell-based; conditions: Klebsiella pneumoniae
Protocol: as §2
as §3, with “antibiotic was” for “two antibiotics were”, “with a” for “with”, “solvent” for “solvents”, “form a” for “form”, “solution.” for “solutions.”

[5] = test system: cefepime-resistant Acinetobacter baumannii; assay: MIC in combination with cefepime for drug-resistant bacteria (Test Example 2); type: cell-based; conditions: Acinetobacter baumannii, read-out: CPM MIC
Protocol: as §2
as §3, with “3;” for “3:”, “antibiotic was” for “two antibiotics were”, “with a” for “with”, “solvent” for “solvents”, “form a” for “form”, “solution.” for “solutions.”

[6] = test system: cefepime-resistant Klebsiella pneumoniae; assay: as above; type: cell-based; conditions: Klebsiella pneumoniae, read-out: CPM MIC
Protocol: as §2
as §3, with “3;” for “3:”, “antibiotic was” for “two antibiotics were”, “with a” for “with”, “solvent” for “solvents”, “form a” for “form”, “solution.” for “solutions.”

[7] = test system: cefepime-resistant Pseudomonas aeruginosa; assay: as above; type: cell-based
Protocol: as §2
as §3, with “3;” for “3:”, “antibiotic was” for “two antibiotics were”, “with a” for “with”, “solvent” for “solvents”, “form a” for “form”, “solution.” for “solutions.”

[8] = test system: cefepime-resistant Escherichia coli; assay: as above; type: cell-based; conditions: Escherichia coli, read-out: CPM MIC
Protocol: as §2
as §3, with “3;” for “3:”, “antibiotic was” for “two antibiotics were”, “with a” for “with”, “solvent” for “solvents”, “form a” for “form”, “solution.” for “solutions.”

[9] = test system: Pseudomonas aeruginosa ATCC 27853; assay: CPM MIC for control strain (Test Example 2); type: cell-based; conditions: ATCC27853; control strain Pseudomonas aeruginosa ATCC 27853 (printed range 0.5~4 μg/mL)
Protocol: as §2
as §3, with “3;” for “3:”, “antibiotic was” for “two antibiotics were”, “with a” for “with”, “solvent” for “solvents”, “form a” for “form”, “solution.” for “solutions.”

[10] = test system: Escherichia coli ATCC 25922; assay: CPM MIC for control strain (Test Example 2); type: cell-based; conditions: ATCC25922; control strain Escherichia coli ATCC 25922 (printed range 0.016~0.12 μg/mL)
Protocol: as §2
as §3, with “3;” for “3:”, “antibiotic was” for “two antibiotics were”, “with a” for “with”, “solvent” for “solvents”, “form a” for “form”, “solution.” for “solutions.”

[11] = Single intravenous administration exposure, pharmacokinetics (Test Example 4); type: in vivo, ICR mice; conditions: ICR, mouse, in vivo, iv
Protocol: The solutions were prepared on the day of administration and stored at 4° C.
Single intravenous injections were administered to ICR mice, which were grouped as follows. Blood was collected from the saphenous vein or the fundus venous plexus at 0.083 h, 0.25 h, 0.5 h, 1 h, 2 h, 4 h, 6 h and 12 h after administration (about 0.1 mL/time point). A biological analysis method was developed to determine plasma concentrations at different time points, and related pharmacokinetic parameters were calculated.

[12] = in the presence of Biapenem (8 ug/mL)
[13] = in the presence of Cefepime (8 ug/mL)

O=C(O)c1c2c(cc3c1OB(O)C1CC31)OCCO2 (centres unmarked) [Compound 1]
Minimum inhibitory concentration [1, 12]: 4 µg/mL | Minimum inhibitory concentration [1, 13]: 16 µg/mL | Minimum inhibitory concentration [2, 12]: ≤0.03125 µg/mL | Minimum inhibitory concentration [2, 13]: 0.5 µg/mL | Minimum inhibitory concentration [3]: 0.5 µg/mL

O=C(O)c1c2c(cc3c1OB(O)C1CC31)OC(F)(F)O2 (centres unmarked) [Compound 2]
Minimum inhibitory concentration [1, 12]: >16 µg/mL | Minimum inhibitory concentration [1, 13]: >16 µg/mL | Minimum inhibitory concentration [2, 12]: 1 µg/mL | Minimum inhibitory concentration [2, 13]: >16 µg/mL | Minimum inhibitory concentration [3]: >16 µg/mL

CO/N=C(\C(=O)N[C@@H]1C(=O)N2C(C(=O)[O-])=C(C[N+]3(C)CCCC3)CS[C@H]12)c1csc(N)n1 [CPM, cefepime]
MIC ([4]; ATCCBAA1705, read-out: MIC, CPM, strain ATCC BAA-1705, KPC-2, TEM, SHV, Class A): > 128 µg/mL | MIC ([4]; ATCCBAA1705, read-out: MIC, single substance (1-1-Na, QPX7728, CPM), strain ATCC BAA-1705, KPC-2, TEM, SHV, Class A): 64 µg/mL (≈ 133 µM) | MIC ([4]; ATCCBAA1898, read-out: MIC, CPM, strain ATCC BAA-1898, KPC-2, Class A): > 128 µg/mL | MIC ([4]; ATCCBAA1898, read-out: MIC, single substance (1-1-Na, QPX7728, CPM), strain ATCC BAA-1898, KPC-2, Class A): 64 µg/mL (≈ 133 µM) | MIC ([4]; ATCCBAA1899, read-out: MIC, CPM, strain ATCC BAA-1899, KPC-2, Class A): > 128 µg/mL | MIC ([4]; ATCCBAA1899, read-out: MIC, single substance (1-1-Na, QPX7728, CPM), strain ATCC BAA-1899, KPC-2, Class A): 32 µg/mL (≈ 66.6 µM) | MIC ([4]; ATCCBAA2343, read-out: MIC, CPM, strain ATCC BAA-2343, KPC, Class A): > 128 µg/mL | MIC ([4]; ATCCBAA2343, read-out: MIC, single substance (1-1-Na, QPX7728, CPM), strain ATCC BAA-2343, KPC, Class A): 128 µg/mL (≈ 266 µM) | MIC ([4]; ATCCBAA2470, read-out: MIC, CPM, strain ATCC BAA-2470, NDM-1, Class B): > 128 µg/mL | MIC ([4]; ATCCBAA2470, read-out: MIC, single substance (1-1-Na, QPX7728, CPM), strain ATCC BAA-2470, NDM-1, Class B): > 128 µg/mL | MIC ([4]; read-out: MIC, CPM, strain ARLG-1127 (Urine), KPC, KPC-3, TEM, TEM-1, Class A): > 128 µg/mL | MIC ([4]; read-out: MIC, CPM, strain ARLG-1195, CTM-1 group, SHV, NDM, Class A, B): > 128 µg/mL | MIC ([4]; read-out: MIC, CPM, strain ARLG-1196, CTM-1 group, SHV, NDM, TEM, Class A, B): 128 µg/mL (≈ 266 µM) | MIC ([4]; read-out: MIC, single substance (1-1-Na, QPX7728, CPM), strain ARLG-1127 (Urine), KPC, KPC-3, TEM, TEM-1, Class A): > 128 µg/mL | MIC ([4]; read-out: MIC, single substance (1-1-Na, QPX7728, CPM), strain ARLG-1195, CTM-1 group, SHV, NDM, Class A, B): 64 µg/mL (≈ 133 µM) | MIC ([4]; read-out: MIC, single substance (1-1-Na, QPX7728, CPM), strain ARLG-1196, CTM-1 group, SHV, NDM, TEM, Class A, B): 128 µg/mL (≈ 266 µM) | MIC ([5]; strain FDA-CDC AR-BANK#0033): > 8 µg/mL | MIC ([5]; strain FDA-CDC AR-BANK#0035): > 8 µg/mL | MIC ([5]; strain FDA-CDC AR-BANK#0078): > 8 µg/mL | MIC ([6]; strain FDA-CDC AR-BANK#0003): > 8 µg/mL | MIC ([6]; strain FDA-CDC AR-BANK#0076): > 8 µg/mL | MIC ([6]; strain FDA-CDC AR-BANK#0080): > 8 µg/mL | MIC ([6]; strain FDA-CDC AR-BANK#0126): > 8 µg/mL | MIC ([6]; strain FDA-CDC AR-BANK#0158): > 8 µg/mL | MIC ([7]; strain FDA-CDC AR-BANK#0246, read-out: CPM MIC): > 8 µg/mL | MIC ([7]; strain FDA-CDC AR-BANK#0439, read-out: CPM MIC): > 8 µg/mL | MIC ([7]; strain FDA-CDC AR-BANK#0441, read-out: CPM MIC): > 8 µg/mL | MIC ([7]; strain FDA-CDC AR-BANK#0444, read-out: CPM MIC): > 8 µg/mL | MIC ([8]; strain FDA-CDC AR-BANK#0055): > 8 µg/mL | MIC ([8]; strain FDA-CDC AR-BANK#0114): > 8 µg/mL | MIC ([8]; strain FDA-CDC AR-BANK#0370): > 8 µg/mL | MIC ([8]; strain FDA-CDC AR-BANK#0371): > 8 µg/mL | MIC [9]: 1 µg/mL (≈ 2.08 µM) | MIC [10]: 0.0156 µg/mL (≈ 0.0325 µM)

O=C(O)c1c(F)ccc2c1OB(O)[C@@H]1C[C@H]21 [QPX7728 disodium salt]
AUC(0-inf) ([11]; 10 mg/kg): 46 µg·h/mL | AUC(0-t) ([11]; 10 mg/kg): 44.7 µg·h/mL | Cmax ([11]; 10 mg/kg): 65.8 µg/mL | Tmax ([11]; 10 mg/kg): 4.98 min | t½z ([11]; 10 mg/kg): 174 min | AUC(0-inf) ([11]; 100 mg/kg): 300 µg·h/mL | AUC(0-t) ([11]; 100 mg/kg): 297 µg·h/mL | Cmax ([11]; 100 mg/kg): 399 µg/mL | Tmax ([11]; 100 mg/kg): 4.98 min | t½z ([11]; 100 mg/kg): 126 min

NCCN[C@H]1CC[C@H](CC(=O)N[C@H]2Cc3cccc(C(=O)O)c3OB2O)CC1 [VNRX-5133]
Minimum inhibitory concentration [1, 12]: 2 µg/mL | Minimum inhibitory concentration [1, 13]: >16 µg/mL | Minimum inhibitory concentration [2, 12]: ≤0.03125 µg/mL | Minimum inhibitory concentration [2, 13]: 0.25 µg/mL | Minimum inhibitory concentration [3]: 2 µg/mL
